Experimental data as given in patent publication US10421761B2, “Compounds for kinase modulation, and indications therefor” (Plexxikon Inc., priority 2013, dated 2019).

How the values were obtained:
B9 (HRAS Q61L) cell line = assay: B9 P-ERK cell activation assay (AlphaScreen); assay type: cell-based, mouse; settings: Mus musculus; P-ERK cell activation, B9; numeric bounds; read-out: Cell activity (EC50 μM) B9_pERK
Outline: (§1)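 Phospho-ERK1/2 (Thr202/Tyr204) in lysates quantified via AlphaScreen bead proximity, after one-hour, 37° C. exposure of cells to eight compound concentrations. Lines: IPC-298 human melanoma with activated NRAS; B9 mouse squamous carcinoma with activated HRAS.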

[1] = tested on: A375 (BRAF V600E) cell line; assay: A375 P-ERK inhibition assay (AlphaScreen); assay type: cell-based, human; settings: Homo sapiens, A-375; A375_P-ERK
Outline: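 Phospho-ERK1/2 (Thr202/Tyr204) detected in lysates by AlphaScreen proximity signal, pairing a total-ERK antibody with a phospho-specific antibody. Before lysis, A375 cells received compound as an 8-point titration for one hour at 37° C.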

BRAF V600E = target: T1, BRAF V600E (Homo sapiens, UniProt P15056, V600E); assay: BRAF V600E biochemical kinase activity assay (AlphaScreen, biotin-MEK1 substrate); settings: BRAF V600E biochemical inhibitory activity
T1 construct: purchased Upstate Biotechnology
T1 sequence (P15056 whole entry V600E): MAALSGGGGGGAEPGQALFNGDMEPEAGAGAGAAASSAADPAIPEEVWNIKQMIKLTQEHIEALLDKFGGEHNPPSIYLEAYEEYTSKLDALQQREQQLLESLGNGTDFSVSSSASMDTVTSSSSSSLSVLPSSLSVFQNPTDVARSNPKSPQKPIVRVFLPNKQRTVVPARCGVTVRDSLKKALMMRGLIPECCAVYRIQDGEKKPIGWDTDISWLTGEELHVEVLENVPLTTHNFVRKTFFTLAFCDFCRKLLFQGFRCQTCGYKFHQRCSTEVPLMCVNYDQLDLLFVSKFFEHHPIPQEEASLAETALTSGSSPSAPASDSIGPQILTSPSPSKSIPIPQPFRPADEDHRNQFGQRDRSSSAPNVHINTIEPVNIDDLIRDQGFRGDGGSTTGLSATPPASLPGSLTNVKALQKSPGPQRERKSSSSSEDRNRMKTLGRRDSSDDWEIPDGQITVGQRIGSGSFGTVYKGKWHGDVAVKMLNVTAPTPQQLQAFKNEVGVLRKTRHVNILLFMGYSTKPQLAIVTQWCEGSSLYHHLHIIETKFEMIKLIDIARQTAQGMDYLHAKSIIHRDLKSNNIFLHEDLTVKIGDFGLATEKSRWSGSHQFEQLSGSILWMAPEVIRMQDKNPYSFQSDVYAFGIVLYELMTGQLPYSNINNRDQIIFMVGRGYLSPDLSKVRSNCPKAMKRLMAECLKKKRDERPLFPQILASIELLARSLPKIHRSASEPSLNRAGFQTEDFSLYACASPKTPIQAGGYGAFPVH

[2] = tested on: IPC-298 (NRAS Q61L) cell line; assay: IPC-298 P-ERK cell activation assay (AlphaScreen); assay type: cell-based, human; settings: Homo sapiens; P-ERK cell activation, IPC-298; numeric bounds; read-out: Cell activity (EC50 μM) IPC-298_P-ERK
Outline: as §1

EC50 (B9 (HRAS Q61L) cell line) [µM]	IC50 [1] [µM]	IC50 (BRAF V600E) [µM]	EC50 [2] [µM]	Compound
> 10	0.0001 to 1	0.0001 to 1	> 10	CCN(C)S(=O)(=O)Nc1cccc(-c2nc(C(C)(C)C)sc2-c2ccnc(OC)n2)c1F [P-2088, 2-tert-butyl-4-[3-[[ethyl(methyl)sulfamoyl]amino]-2-fluoro-phenyl]-5-(2-methoxypyrimidin-4-yl)thiazole]
> 1	0.0001 to 1	0.0001 to 1	> 1	CCN(C)S(=O)(=O)Nc1cccc(-c2nc(C(C)(C)C)sc2-c2ccnc(N)n2)c1F [P-2089, 5-(2-aminopyrimidin-4-yl)-2-tert-butyl-4-[3-[[ethyl(methyl)sulfamoyl]amino]-2-fluoro-phenyl]thiazole]
> 10	0.0001 to 1	0.0001 to 1	> 10	CCN(C)S(=O)(=O)Nc1cccc(C(=O)c2c[nH]c3ncnc(C)c23)c1F [P-2090, 5-[3-[[ethyl(methyl)sulfamoyl]amino]-2-fluoro-benzoyl]-4-methyl-7H-pyrrolo[2,3-d]pyrimidine]
> 10	0.0001 to 1	0.0001 to 1	> 10	CCN(C)S(=O)(=O)Nc1cccc(C(=O)c2c[nH]c3ncnc(C4CC4)c23)c1F [P-2091, 4-cyclopropyl-5-[3-[[ethyl(methyl)sulfamoyl]amino]-2-fluoro-benzoyl]-7H-pyrrolo[2,3-d]pyrimidine]
> 10	0.0001 to 1	0.0001 to 1	> 10	CCN(C)S(=O)(=O)Nc1cccc(C(=O)c2c[nH]c3ncnc(OC)c23)c1F [P-2092, 5-[3-[[ethyl(methyl)sulfamoyl]amino]-2-fluoro-benzoyl]-4-methoxy-7H-pyrrolo[2,3-d]pyrimidine]
> 1	0.0001 to 1	0.0001 to 1	> 1	CN(C)S(=O)(=O)Nc1cccc(-c2nc(C(C)(C)C)sc2-c2ccnc(N)n2)c1F [P-2093, 5-(2-aminopyrimidin-4-yl)-2-tert-butyl-4-[3-(dimethylsulfamoylamino)-2-fluoro-phenyl]thiazole]
> 10	0.0001 to 1	0.0001 to 1	> 10	C[C@@H](Nc1ncnc2[nH]cc(C(=O)c3cccc(NS(=O)(=O)N4CCCC4)c3F)c12)C1CC1 [P-2094, N-[3-[4-[[(1R)-1-cyclopropylethyl]amino]-7H-pyrrolo[2,3-d]pyrimidine-5-carbonyl]-2-fluoro-phenyl]pyrrolidine-1-sulfonamide]
> 10	> 10	0.0001 to 1	> 10	O=C(c1cccc(NS(=O)(=O)N2CCCC2)c1F)c1c[nH]c2ncnc(NCC(O)CO)c12 (centres unmarked) [P-2096, N-[3-[4-(2,3-dihydroxypropylamino)-7H-pyrrolo[2,3-d]pyrimidine-5-carbonyl]-2-fluoro-phenyl]pyrrolidine-1-sulfonamide]
> 10	> 10	1 to 10	> 10	O=C(c1cccc(NS(=O)(=O)N2CCCC2)c1F)c1c[nH]c2ncnc(NC3(C(=O)O)CC3)c12 [P-2097, 1-[[5-[2-fluoro-3-(pyrrolidin-1-ylsulfonylamino)benzoyl]-7H-pyrrolo[2,3-d]pyrimidin-4-yl]amino]cyclopropanecarboxylic acid]

The remaining lines, values behind:

Compound	EC50 (B9 (HRAS Q61L) cell line) [µM]	IC50 [1] [µM]	IC50 (BRAF V600E) [µM]	EC50 [2] [µM]
Cc1ncnc2[nH]cc(C(=O)c3cccc(NS(=O)(=O)N4CCCC4)c3F)c12 [P-2076, N-[2-fluoro-3-(4-methyl-7H-pyrrolo[2,3-d]pyrimidine-5-carbonyl)phenyl]pyrrolidine-1-sulfonamide]	> 10	0.0001 to 1	0.0001 to 1	> 10
O=C(c1cccc(NS(=O)(=O)N2CCCC2)c1F)c1c[nH]c2ncnc(C3CC3)c12 [P-2078, N-[3-(4-cyclopropyl-7H-pyrrolo[2,3-d]pyrimidine-5-carbonyl)-2-fluoro-phenyl]pyrrolidine-1-sulfonamide]	> 10	0.0001 to 1	0.0001 to 1	> 10
CCN(C)S(=O)(=O)Nc1cccc(C(=O)c2c[nH]c3ncnc(N[C@H](C)C4CC4)c23)c1F [P-2079, 4-[[(1R)-1-cyclopropylethyl]amino]-5-[3-[[ethyl(methyl)sulfamoyl]amino]-2-fluoro-benzoyl]-7H-pyrrolo[2,3-d]pyrimidine]	> 10	0.0001 to 1	0.0001 to 1	> 10
CCN(C)S(=O)(=O)Nc1cccc(C(=O)c2c[nH]c3ncnc(N[C@@H](C)C4CC4)c23)c1F [P-2080, 4-[[(1S)-1-cyclopropylethyl]amino]-5-[3-[[ethyl(methyl)sulfamoyl]amino]-2-fluoro-benzoyl]-7H-pyrrolo[2,3-d]pyrimidine]	> 10	0.0001 to 1	0.0001 to 1	> 10
O=C(c1cccc(NS(=O)(=O)N2CCCC2)c1F)c1c[nH]c2ncnc(NC3CCC3)c12 [P-2081, N-[3-[4-(cyclobutylamino)-7H-pyrrolo[2,3-d]pyrimidine-5-carbonyl]-2-fluoro-phenyl]pyrrolidine-1-sulfonamide]	> 10	0.0001 to 1	0.0001 to 1	> 10
O=C(c1cccc(NS(=O)(=O)N2CCCC2)c1F)c1c[nH]c2ncnc(NC[C@@H]3CCCO3)c12 [P-2082, N-[2-fluoro-3-[4-[[(2S)-tetrahydrofuran-2-yl]methylamino]-7H-pyrrolo[2,3-d]pyrimidine-5-carbonyl]phenyl]pyrrolidine-1-sulfonamide]	> 10	0.0001 to 1	0.0001 to 1	> 10
O=C(c1cccc(NS(=O)(=O)N2CCCC2)c1F)c1c[nH]c2ncnc(NC3CCOCC3)c12 [P-2083, N-[2-fluoro-3-[4-(tetrahydropyran-4-ylamino)-7H-pyrrolo[2,3-d]pyrimidine-5-carbonyl]phenyl]pyrrolidine-1-sulfonamide]	> 10	0.0001 to 1	0.0001 to 1	> 10
COc1ncnc2[nH]cc(C(=O)c3cccc(NS(=O)(=O)N4CCCC4)c3F)c12 [P-2084, N-[2-fluoro-3-(4-methoxy-7H-pyrrolo[2,3-d]pyrimidine-5-carbonyl)phenyl]pyrrolidine-1-sulfonamide]	> 10	0.0001 to 1	0.0001 to 1	> 10
CCN(C)S(=O)(=O)Nc1cccc(-c2nc(C(C)(C)C)sc2-c2ccnc(Cl)n2)c1F [P-2085, 2-tert-butyl-5-(2-chloropyrimidin-4-yl)-4-[3-[[ethyl(methyl)sulfamoyl]amino]-2-fluoro-phenyl]thiazole]	> 10	0.0001 to 1	1 to 10	> 10
CCCN(C)S(=O)(=O)Nc1cccc(C(=O)c2c[nH]c3ncnc(C)c23)c1F [P-2086, 5-[2-fluoro-3-[[methyl(propyl)sulfamoyl]amino]benzoyl]-4-methyl-7H-pyrrolo[2,3-d]pyrimidine]	> 10	0.0001 to 1	0.0001 to 1	> 10
CCCN(C)S(=O)(=O)Nc1cccc(C(=O)c2c[nH]c3ncnc(C4CC4)c23)c1F [P-2087, 4-cyclopropyl-5-[2-fluoro-3-[[methyl(propyl)sulfamoyl]amino]benzoyl]-7H-pyrrolo[2,3-d]pyrimidine]	> 10	1 to 10	0.0001 to 1	> 10
